The subject of data set [1] is VEGF-induced DLL4 and NR4 A1 mRNA expression. Briefly: RT-qPCR of VEGF-induced DLL4 and NR4A1 mRNA in HUVECs. It is filed as cell-based, human. The settings on record: 0.5 µM compound, VEGF 40 ng/mL. As for the experimental part: (§1) EA.hy926 cells or HUVECs were seeded in 6-well plates and cultured until they reached 80% confluence. The medium was replaced with a serum-free medium for a 4 h starvation. For EA.hy926 cells, the compounds were added at a final concentration of 0.5 μM for 30 min, followed by BMP9 (1 ng/mL), TGF-β2 (1 ng/mL), or vehicle control addition and cultured for another 3 h before the cells were harvested. To investigate VEGF-induced cellular response, HUVECs were exposed to VEGF (40 ng/mL) for 1 h after 30 min pre-treatment with the compounds.
(§2) After samples were collected, total RNA was isolated and purified using the NucleoSpin RNA II kit (740955, BIOKE, Leiden, the Netherlands), following the manufacturer’s instructions. Then, the mRNA was used as a template to synthesize cDNA by performing reverse transcription with the RevertAid First Strand cDNA Synthesis Kit (K1621, ThermoFisher Scientific). Gene expression levels were determined by RT-qPCR analysis using the GoTaq qPCR Master Mix (A6001, Promega, Madison, WI, USA) and normalized to GAPDH expression. All the experiments were repeated three times, and results from three biologically independent experiments are shown.

Data set [2] has as its system MDA-MB-231 breast cancer cell-induced angiogenesis. Briefly: Tumor angiogenesis in zebrafish (MDA-MB-231 xenograft). It is filed as in vivo. The settings on record: 0.5 µM, 3 days, MDA-MB-231 in perivitelline space. As for the experimental part:
Two days post fertilization (dpf), four hundred mCherry-labeled human breast cancer MDA-MB-231 cells were injected into the perivitelline space of Tg (fli:EGFP) zebrafish embryos as previously described. The properly injected zebrafishes were randomly divided into five groups, and each group contained at least 30 embryos. […] The egg water was refreshed daily, and the abnormal embryos were removed. After 3 days, the embryos were fixed in 4% PFA for 2 h at room temperature and stored at 4 °C in PBS. The tumor cell-induced angiogenesis in the perivitelline space was imaged with an Andor Dragonfly 500 spinning disk confocal using 488 nm and 561 nm lasers. At least ten embryos per group were randomly selected and scanned. The experiments were repeated twice with similar results. Tumor angiogenesis was quantified using ImageJ, and the relative vasculature density was calculated according to the following formula: Relative vasculature density (%) = 100% × (Vessel intensity within the perivitelline space)/(tumor cells intensity within the perivitelline space).

In the next data set the test system is EA.hy926 cells. Briefly: MTS assay. It counts as cell-based, human. As to conditions: 0.5 μM, day 1, 2 and 3. As for the experimental part:
The MTS assay was used to measure the metabolic activity and viability of the cells. Around 5 × 10^3 EA.hy926 cells were seeded and cultured overnight in a 96-well plate and then cultured in the normal growth medium, which contained the indicated compounds and ligands. The MTS tetrazolium was measured according to the manufacturer’s protocol using an MTS Assay Kit (G3580, Promega). In brief, after exposing the cells in set conditions for 1, 2, and 3 days, 20 µL of MTS reagent was added to 100 μL cell growth medium per well and incubated for 4 h at 37 °C. Thereafter, absorbance at 490 nm was measured using a PerkinElmer […]. All the experiments were repeated at least three times, and representative experiments are shown.
(In general: Formazan colour is commonly taken as a measure of viable cells.)

Data set [3] deals with BMP9-induced ID1, ID3, and SMAD6 mRNA expression. Briefly: RT-qPCR of BMP9-induced ID1, ID3 and SMAD6 mRNA in EA.hy926 cells. It is filed as cell-based, human. The settings on record: 0.5 µM compound, BMP9 1 ng/mL. As for the experimental part: as §1, §2
For orientation: Real-time PCR tracks product formation cycle by cycle.

A further data set concerns the target ACVR2A (Homo sapiens, UniProt P27037). Briefly: radiometric protein kinase assay, affinity (Kd). It is filed as binding. As to the method: The binding interaction profile of the compounds for ALK1–6, ACVR2A, ACVR2B, and TGFβR2 was determined by using radiometric protein kinase assay. For each compound, ten different concentrations (from 3 × 10^−6 M to 9 × 10^−11 M) were used in the protein kinase reaction. The inhibitor binding constants (Kd values) were calculated based on the 10 corresponding residual activities for each compound using Prism 5.04 (Graphpad, San Diego, CA, USA) according to the following formula:Kd = ([K][I]/[C]) where [K] = molar concentration of non-inhibitor bound kinase at equilibrium, [I] = molar concentration of the free inhibitor at equilibrium, [C] = molar concentration of kinase-inhibitor complex at equilibrium.

The target of a further data set is T1, MAP4K4 (Homo sapiens, UniProt O95819).
T1 construct: purchased ProQinase (33PanQinase Activity Assay)
The data set can be described thus: radiometric kinase profiling (33 PanQinase). It is filed as biochemical. As to conditions: read-out: Inhibitory effect (%) MAP4K4. The method in brief: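 Enzyme/substrate mixes were incubated with [γ-33P]-ATP and compound (added as a 0.1 μM solution in 10% DMSO) at 30 °C for 60 min, then stopped with H3PO4 and washed with NaCl. 33P incorporation was scintillation-counted, and residual activity (%) was normalized to untreated control and background.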

The target in another data set is ALK1 (Homo sapiens, UniProt P37023). The data set can be described thus: radiometric protein kinase assay, affinity (Kd). It counts as binding. As to the method: The binding interaction profile of the compounds for ALK1–6, ACVR2A, ACVR2B, and TGFβR2 was determined by using radiometric protein kinase assay. For each compound, ten different concentrations (from 3 × 10^−6 M to 9 × 10^−11 M) were used in the protein kinase reaction.

Data set [4] concerns Tg (fli:EGFP) zebrafish embryos. Briefly: Zebrafish embryo toxicity assay. It counts as in vivo. The settings on record: 0.5 µM in egg water, three days. As for the experimental part: Breeding pairs of the transgenic Casper zebrafish line Tg (fli:EGFP) were put together in a tank, and the next morning, all embryos were collected as previously described. Fertilized eggs that were at the same development stage (around 2.5 h post-fertilization (hpf)) were selected under the microscope. The eggs were randomly divided into different groups, and each group contained about 20 embryos. All the embryos were raised in egg water (60 μg/mL sea salt) and placed in a 28 °C incubator. The compounds dissolved in DMSO were diluted in egg water to a final concentration of 0.5 µM. Equal amounts of DMSO were added to the vehicle control group. Egg water was changed every day, and abnormal embryos were removed. Embryos were recorded until day 3. All experiments were performed in technical triplicates and repeated three times, and representative results are shown. The survival rate was calculated according to the following formula: Survival rate (%) = 100% × (Number of zebrafish that survived at the end)/(Number of zebrafish present at the beginning).

Experimental findings from publication PMC8231556, “Inhibiting Endothelial Cell Function in Normal and Tumor Angiogenesis Using BMP Type I Receptor Macrocyclic Kinase Inhibitors” (Cancers, 2021) are described below.

Structures are written as SMILES.

Chain of ACVR2A (P27037 20-513): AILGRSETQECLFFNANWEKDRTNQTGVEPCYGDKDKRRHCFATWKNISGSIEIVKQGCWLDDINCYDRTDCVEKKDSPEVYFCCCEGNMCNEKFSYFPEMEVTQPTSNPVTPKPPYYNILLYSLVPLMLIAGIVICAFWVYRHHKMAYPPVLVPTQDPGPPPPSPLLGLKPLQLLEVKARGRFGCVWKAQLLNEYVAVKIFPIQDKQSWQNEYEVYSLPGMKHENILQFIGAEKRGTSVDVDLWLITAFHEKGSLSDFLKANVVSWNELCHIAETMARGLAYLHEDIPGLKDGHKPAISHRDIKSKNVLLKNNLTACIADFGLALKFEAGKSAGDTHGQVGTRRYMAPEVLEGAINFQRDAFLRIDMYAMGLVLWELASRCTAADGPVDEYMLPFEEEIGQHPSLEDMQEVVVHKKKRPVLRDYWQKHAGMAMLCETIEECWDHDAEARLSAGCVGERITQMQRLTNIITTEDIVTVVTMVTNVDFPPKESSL
Chain of ALK1 (P37023 22-503): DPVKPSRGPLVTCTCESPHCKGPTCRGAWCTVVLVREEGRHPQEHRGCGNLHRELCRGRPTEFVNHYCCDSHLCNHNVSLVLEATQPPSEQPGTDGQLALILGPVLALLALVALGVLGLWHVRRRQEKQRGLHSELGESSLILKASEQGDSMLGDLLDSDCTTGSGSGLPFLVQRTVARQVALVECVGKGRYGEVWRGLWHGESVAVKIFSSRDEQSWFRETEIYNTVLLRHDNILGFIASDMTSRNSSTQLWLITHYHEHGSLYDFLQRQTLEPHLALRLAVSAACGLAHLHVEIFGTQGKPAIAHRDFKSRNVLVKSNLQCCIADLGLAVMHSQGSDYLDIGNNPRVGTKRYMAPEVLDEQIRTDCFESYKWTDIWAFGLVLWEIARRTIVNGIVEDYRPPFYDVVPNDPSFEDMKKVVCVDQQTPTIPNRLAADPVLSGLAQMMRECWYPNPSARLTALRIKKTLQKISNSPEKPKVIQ
T1 sequence (O95819 whole entry): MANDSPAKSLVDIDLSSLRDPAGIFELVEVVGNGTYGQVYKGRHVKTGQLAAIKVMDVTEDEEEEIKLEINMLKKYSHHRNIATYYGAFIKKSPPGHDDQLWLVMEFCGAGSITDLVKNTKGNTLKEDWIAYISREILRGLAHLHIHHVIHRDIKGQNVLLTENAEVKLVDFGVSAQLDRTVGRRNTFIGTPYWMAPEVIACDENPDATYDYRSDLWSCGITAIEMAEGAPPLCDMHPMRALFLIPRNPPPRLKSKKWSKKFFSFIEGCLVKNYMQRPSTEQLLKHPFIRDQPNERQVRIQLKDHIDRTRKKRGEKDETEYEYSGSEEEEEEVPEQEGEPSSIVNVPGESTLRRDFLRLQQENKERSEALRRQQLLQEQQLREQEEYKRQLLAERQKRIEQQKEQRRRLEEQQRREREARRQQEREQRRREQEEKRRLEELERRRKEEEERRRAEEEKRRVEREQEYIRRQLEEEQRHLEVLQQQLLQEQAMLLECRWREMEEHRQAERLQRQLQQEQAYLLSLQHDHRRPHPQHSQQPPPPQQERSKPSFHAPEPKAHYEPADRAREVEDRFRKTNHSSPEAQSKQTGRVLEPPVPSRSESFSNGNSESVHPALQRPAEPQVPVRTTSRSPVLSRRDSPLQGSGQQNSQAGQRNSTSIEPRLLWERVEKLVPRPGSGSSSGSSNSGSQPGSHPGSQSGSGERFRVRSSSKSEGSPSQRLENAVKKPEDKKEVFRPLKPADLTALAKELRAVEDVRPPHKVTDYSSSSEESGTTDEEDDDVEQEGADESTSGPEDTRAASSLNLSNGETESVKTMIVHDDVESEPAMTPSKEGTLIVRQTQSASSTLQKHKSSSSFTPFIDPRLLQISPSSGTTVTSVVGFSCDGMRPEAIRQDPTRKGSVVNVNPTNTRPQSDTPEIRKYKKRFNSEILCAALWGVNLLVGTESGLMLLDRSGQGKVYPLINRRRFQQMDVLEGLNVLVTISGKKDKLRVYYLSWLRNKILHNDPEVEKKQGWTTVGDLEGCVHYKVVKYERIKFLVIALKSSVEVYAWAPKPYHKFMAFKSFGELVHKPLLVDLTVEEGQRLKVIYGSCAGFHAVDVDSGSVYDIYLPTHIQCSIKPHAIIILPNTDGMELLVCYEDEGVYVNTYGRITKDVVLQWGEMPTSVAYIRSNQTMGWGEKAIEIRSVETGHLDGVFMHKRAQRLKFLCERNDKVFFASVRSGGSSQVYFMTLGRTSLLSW

Turning to `CNC(=O)c1ccccc1Sc1ccc2c(/C=C/c3ccccn3)n[nH]c2c1` [Axitinib, reference compound], in data set [1], the “effect on VEGF-induced DLL4 mRNA expression” value is reported as “inhibited” and the “effect on VEGF-induced NR4 A1 mRNA expression” value is “inhibited”. The “effect on cancer cell-induced angiogenesis (relative vasculature density)” value (“effect … (relative vasculature density)” for short) in data set [2] is reported as “markedly inhibited”. The “effect on EA.hy926 cell viability (MTS)” value in the data set with EA.hy926 cells is given as “no significant effects”.

In the case of `c1ccc2c(-c3cnn4cc(-c5ccc(N6CCNCC6)cc5)cnc34)ccnc2c1` [LDN-193189, reference compound], the “effect on BMP9-induced ID1, ID3 and SMAD6 mRNA expression” value (“effect on BMP9-induced ID1” below) in data set [3] is on record as “inhibited”. Moreover, the “effect on EA.hy926 cell viability (MTS)” value with EA.hy926 cells is given as “markedly attenuated”. In addition, the Kd (as a rule, the free concentration of one partner at which half of the binding sites on the other are occupied at equilibrium, for simple one-to-one binding) at ACVR2A came out at 11 nM.

`CN1CCc2cccc(c2)Nc2nccc(n2)N2CCCc3cc(ccc32)C1` [OD16]: on MAP4K4, the inhibition at 0.1 µM was -0.07%. In data set [1], the “effect on VEGF-induced DLL4 mRNA expression” value is recorded as “did inhibit”. In addition, in data set [2], the “effect … (relative vasculature density)” value is given as “significantly inhibited”. In addition, the Kd is 20 nM on ALK1 and 110 nM at ACVR2A. Besides, the “survival rate of the zebrafish” value in data set [4] is listed as 80–93%. Moreover, the “effect on BMP9-induced ID1” value in data set [3] was “inhibited”. Further, in the data set on EA.hy926 cells, the “effect on EA.hy926 cell viability (MTS)” value was “no significant effects”.

Regarding `CN1CCC(=O)NCCNc2ccn3ncc(c3n2)-c2cccc(c2)C1` [OD29], the inhibition at 0.1 µM at MAP4K4 came to 13.5%. In data set [1], the “effect on VEGF-induced DLL4 mRNA expression” value is listed as “inhibited”. Moreover, in data set [1], the “effect on VEGF-induced NR4 A1 mRNA expression” value was “inhibited”. Further, in data set [2], the “effect … (relative vasculature density)” value is “significantly inhibited”. Further, the Kd came to 6 nM at ALK1 and 1240 nM on ACVR2A. The “survival rate of the zebrafish” value in data set [4] is listed as 80–93%. Moreover, the “effect on BMP9-induced ID1” value in data set [3] was “inhibited”. The “effect on EA.hy926 cell viability (MTS)” value in the data set on EA.hy926 cells was “no significant effects”.
